Measurements from patent US12128173B2, “Dry powder drug delivery system and methods” (MannKind Corporation, priority 2012, dated 2024).

Columns and labels:
[1] = Powder flowability: Hausner ratio, compressibility (Carr's) index, angle of repose, critical orifice; type: physicochemical
Text: FDKP microparticles either unmodified or containing a drug, for example insulin, constitute highly cohesive powders.

Solubility of FDKP by pH = type: physicochemical
[2] = VMGD and container emptying by laser diffraction, DPI 2 vs MEDTONE (Example 6); type: physicochemical; conditions: SSA 55, 4 kPa
Text: Typically, the geometric size of the emitted powder includes a volumetric distribution characterized by the median particle size, VMGD.

[3] = In vitro powder emptying and VMGD, DPI 2 vs MTDS (Example 7); type: physicochemical; conditions: 4 kPa
Text: In vitro powder performance for these systems was compared for various parameter of inhaler performance. For DPI 2 a single discharge per cartridge was used as compared to two discharges per cartridge in the MEDTONE® system.
Particle sizing by laser diffraction and quantification of emitted mass as described above were used in these experiments. A laser diffraction instrument (Sympatec HELOS) was adapted with a novel pressurized inhaler chamber to facilitate analysis of powder plumes. MTDS cartridges were discharged twice per determination versus once with DPI 2.

[4] = FDKP pharmacokinetics after inhalation, DPI 1 vs MEDTONE (Example 8); type: in vivo, healthy volunteers
Text: The MEDTONE® inhaler system was used for comparison. […] Powder used were crystalline powder formulations.
During an inhalation maneuver, the patient was instructed to maintain a nominal pressure differential of 4-6 kPa combined with a short inhalation of 3-4 seconds or a long inhalation of 6-7 seconds. To generate a “hard” inhalation, the subject provided a nominal inhalation time of about 6.5 seconds and a peak pressure of 7 kPa. Conversely, to generate an “easy” inhalation, the subject provided a nominal inhalation time of about 6.5 seconds and a peak pressure of 5 kPa. Coupled with the inhalation monitoring apparatus, gravimetric assessment of the powder mass discharged from the cartridge was performed. This enabled a linkage between inhalation maneuver during dosing, cartridge discharge mass and pharmacokinetic profile determinations for each subject.
The study was an open-label, crossover, 2-part study in healthy volunteers.
Part 2 was carried out as a 2-part, 2-way crossover study for evaluating the effect of flow rate (15 versus 30 LPM) and inhalation time (3 versus 6 seconds). For each parameter tested (i.e., flow rate, and inhalation time), ten subjects were crossed over for each parameter with 20 subjects total for all of the parameters. Pharmacokinetics of FDPK was assessed with each treatment from blood samples taken from the subjects.

[5] = O-series vs U-series inhaler: discharge and particle size of crystalline and amorphous powders (Example 14); type: physicochemical; conditions: fill 25 mg, 4 kPa; for X84 avg: in µm (unit assumed)
Procedure: These experiments were conducted to test various inhaler designs in trying to improve percent dose discharge or increase device emptying to acceptable ranges for certain types of powders used. […] In these experiments, therefore, two types of dry powder inhalers were designed and built. An O-series (FIGS. 49 and 50) dry powder inhaler wherein the inhaler comprises rigid conduits which generate a tumbling, recirculating action of an airflow through the powder container during an inhalation in an O-shape prior to the airflow exiting the container. A second inhaler or U-series was also designed and built for comparison wherein the dry powder inhaler comprised a rigid air conduit through the container substantially U-shaped and configured with a deflector so that in use an airflow entering the container redirects the airflow within the container void or space in a U-shape/semilunar path or downwardly prior to exiting the container. Powders tested were either crystalline or amorphous.
The rigid flow conduits as illustrated in FIGS. 49 and 51 can be adapted to any type of dry powder inhaler for delivering different types of powder compositions. In these experiments, crystalline and amorphous powders were tested with the two types of air flow conduits designed into the same type of inhalers, a single use disposable. […] Inhaler performance was tested and evaluated from measurements using various parameters, such as pressure differential, powder content prior to and after testing of various powders via a simulated single inhalation. The particle size distribution of the discharged powder plume for each inhaler used was also measured as described in Example 7 above.

[6] = FDKP bioavailability versus intravenous bolus of radiolabeled FDKP; conditions: model analysis
[7] = Post prandial glucose excursions during meal challenges; type: in vivo, healthy volunteers; conditions: DPI 2 vs MEDTONE, doses not titrated

O=C(O)/C=C/C(=O)NCCCCC1NC(=O)C(CCCCNC(=O)/C=C/C(=O)O)NC1=O (stereo not drawn) [FDKP, 3,6-bis(N-fumaryl-4-aminobutyl)-2,5-diketopiperazine]
angle of repose [1]: 40 °
solubility (Solubility of FDKP by pH; at neutral or basic pH): readily soluble
solubility (Solubility of FDKP by pH; in acid): low solubility
VMGD ([2]; DPI 2, 56% trans): 6.800 micron
VMGD ([2]; MEDTONE, 56% trans): 21.200 micron
Ave. VMGD ([3]; DPI 2, fill 10 mg, single discharge): 6.84 μm
Ave. VMGD ([3]; MEDTONE (MTDS), fill 10 mg FDKP, two discharges): 21.21 μm
better delivery of FDKP into the systemic circulation than MEDTONE ([4]; DPI 1 vs MEDTONE): about 30%
AVG mean AUC fdkp per emitted fdkp mass ([4]; Part 1, DPI 1, 10 mg, nominal time and inhalation effort): 3495 ng*min/mL*mg fdkp
AVG mean AUC fdkp per emitted fdkp mass ([4]; Part 1, MT (MEDTONE), 10 mg, nominal time and inhalation effort): 1934 ng*min/mL*mg fdkp
AVG mean AUC fdkp per emitted fdkp mass ([4]; Part 2, DPI 1, 10 mg, long inhalation time): 3289 ng*min/mL*mg fdkp
AVG mean AUC fdkp per emitted fdkp mass ([4]; Part 2, DPI 1, 10 mg, short inhalation time): 3310 ng*min/mL*mg fdkp
X16 avg ([5]; Sample 1, O-series): 1.9 µm
X50 avg ([5]; Sample 1, O-series): 6.86 μm
X84 avg ([5]; Sample 1, O-series): 21.55
X16 avg ([5]; Sample 2, U-series): 2.76 µm
X50 avg ([5]; Sample 2, U-series): 11.19 μm
X84 avg ([5]; Sample 2, U-series): 36.51
% of the FDKP delivered into the systemic circulation ([6]; DPI 2, single inhalation, 6.7 mg total fill FDKP-insulin (FDKP about 6 mg)): 64%
% of the FDKP delivered into the systemic circulation ([6]; MEDTONE, two inhalations, FDKP-insulin formulation): 46%

insulin
post prandial glucose excursions [7]: generally comparable glucose excursions
